Entries after “also recorded” stand apart in the source; their conditions may differ.
What was measured:
[1] = target: T1, TGase (Guinea pig liver, EC 2.3.2.13) (UniProt P08587); assay: Inhibitory effect of synthetic peptides on TGase in vitro ([14C]-putrescine incorporation into succinylated casein); assay type: biochemical; details: peptides 1×10^−8 M, preincubated 15 min at 37° C.; compared with the peptides known as PLA2 inhibitors
T1 construct: 0.001 U TGase (Guinea pig liver, EC 2.3.2.13, Sigma); purchased Sigma; host or cells: guinea pig liver
T1 sequence (P08587 1-690): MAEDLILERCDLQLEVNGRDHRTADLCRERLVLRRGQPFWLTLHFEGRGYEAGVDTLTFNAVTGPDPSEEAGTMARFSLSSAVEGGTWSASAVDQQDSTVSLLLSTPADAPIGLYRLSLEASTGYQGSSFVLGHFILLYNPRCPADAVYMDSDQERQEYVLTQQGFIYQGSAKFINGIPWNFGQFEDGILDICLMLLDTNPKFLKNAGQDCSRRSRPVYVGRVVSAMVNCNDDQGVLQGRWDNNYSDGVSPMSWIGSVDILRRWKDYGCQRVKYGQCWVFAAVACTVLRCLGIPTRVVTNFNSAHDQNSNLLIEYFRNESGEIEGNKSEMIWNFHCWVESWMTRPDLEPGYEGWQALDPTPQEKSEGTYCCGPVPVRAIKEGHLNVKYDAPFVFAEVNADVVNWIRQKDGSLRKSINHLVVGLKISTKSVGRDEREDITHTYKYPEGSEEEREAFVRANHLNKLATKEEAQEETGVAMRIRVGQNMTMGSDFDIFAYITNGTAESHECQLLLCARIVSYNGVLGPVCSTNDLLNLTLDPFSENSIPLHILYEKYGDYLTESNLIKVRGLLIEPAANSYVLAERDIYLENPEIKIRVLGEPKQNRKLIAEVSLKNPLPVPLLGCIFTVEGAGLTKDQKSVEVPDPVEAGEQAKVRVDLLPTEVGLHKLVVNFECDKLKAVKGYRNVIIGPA
From the text: It is needed to inhibit the activity of TGase in order to secure maximum anti-inflammatory activity since the TGase activates PLA2. A established TGase assay method was used to determine the enzymatic activity by measuring the incorporation of [1,4]^14C-putrescine into succinylated casein (Folk J E., et al., Transglutaminase. Methods in Enzymol 1985; 113; 358–375).
To determine the inhibitory activity, 0.001 U TGase (Guinea pig liver, EC 2.3.2.13, Sigma; 1.0 unit will catalyze the formation of […] of hydroxamate per min. from N- -CBZ-Gln-Gly and hydroxylamine at pH 6.0 at 37° C.) was preincubated for 15 minutes with the synthetic peptides in 0.1 ml (1×10^−8 M) at 37° C. before adding the TGase/peptide mixture to the substrate solution (0.5 ml) containing 0.1 M Tris-acetate pH 7.5, 1% succinylated casein, 1 mM EDTA, 10 mM CaCl2, 0.5% lubrol PX, 5 mM DTT, 0.15M NaCl and 0.5 mCi ^14C-putrescine [Dupont-New England Nuclear, Wilmington, […] (118 Ci/mole)]. […] The TCA-insoluble precipitates were collected onto GF/A glass fiber filters, washed with cold 5% TCA, dried and counted. […]
For inhibitory test of the peptides given, each value is the mean of data from three separate experiments (S.D.<10%). The value of TGase activity incubated without peptides was determined as 100% TGase activity that is 4.89 pmole putrescine/hr. % Inhibition was shown in FIG. 2.

[2] = test system: allergic conjunctivitis to ragweed (Ambrosia trifida); assay: Allergic conjunctivitis to ragweed in guinea pig: clinical scores (conjunctival edema and redness); assay type: in vivo, Hartley female guinea pig; details: for Statistical evaluation of clinical scores (Mann-Whitney test), P compared to Dexamethasone / Statistical evaluation of clinical scores (Mann-Whitney test), P compared to Livostine / Statistical evaluation of clinical scores (Mann-Whitney test), P compared to No treatment group: conjunctival edema and redness score 0-4+, 20 min after allergen challenge, 12 eyes per group, eye drops
Method: The peptides of the present invention were analyzed in experimental model of allergic conjunctivitis to ragweed (giant ragweed; Ambrosia trifida) in guinea pig. Hartley strain of guinea pig was selected according to previous reports of conjunctival anaphylaxis (Calonge M., et al., Acta Ophthalmol 68; 470–476, 1990) and females were chosen based on the sex dimorphism of ocular mucosal immunity with the protective role of male hormones (Saruya S., et al., Act Soc Ophthalmol Jap 72; 833–845, 1968). The conjunctival redness and edema are main signs of seasonal allergic conjunctivitis and eosionphil infiltration is the hallmark of the conjunctival histology in patients with allergic conjunctivitis (Abelson M B., et al., Arch Ophthalmol. 101; 555–556, 1983; Butrus S I., et al., Int. Ophthalmol. Clin. 28; 324–328, 1988) 86 Hartley female guinea pigs, 200–250 g were housed in the animal facilities of the Asan Institute for Life Sciences (Korea), given guinea pig chow and water ad libitum, and cared for in accordance with the Declaration of Helsinki and the National Institute of Health Guide to the Care and Use of the Laboratory Animals (Korea). […] On day 15, immunized guinea pigs were divided 14 groups, 6 for each group. 11 anti-inflammatory peptides including new recombinants, dexamethasone eye drop (Maxidex, 0.1% dexamethasone, Alcon) and anti-histamine eye drop (Livostin, levocabastine, Janssen) were used for 13 groups, and no treatment for one group. Normal controls were employed as 6 non-immunized and non-treated guinea pigs. […] All the procedures were followed experimental model of allergic conjunctivitis described by Merayo-Lloves et al (Experimental model of allergic conjunctivitis to ragweed in guinea pig. Curr. Eye Res. 14; 487–494, 1995). Anti-inflammatory peptides were resolved in sterile saline (100 μmol/40 μl concentration). All peptides and dexamethasone eye solutions were challenged 3 hour prior to the last pollen application on day 15, 10 minutes after pollen application, and 4 times thereafter at the 3 hour interval. Conjunctival edema and redness were judged in room light and under an operating microscope (Zeiss, Germany). The evaluation was performed in a masked fashion at 20 min after allergen challenge and each clinical sign was scored on a scale 0–4+ (0 absent, 1+ minimal, 2+ mild, 3+ moderate, 4+ severe), adapted for guinea pig from previous report (Merayo-Lloves et al: Experimental model of allergic conjunctivitis to ragweed in guinea pig. Curr. Eye Res. 14; 487–494, 1995). Clinical scores of each group (12 eyes in each group) were analyzed.

| Sequence | TGase activity (FIG. 2), result in words [1] | Statistical evaluation of clinical scores (Mann-Whitney test), P compared to Dexamethasone [2] | Statistical evaluation of clinical scores (Mann-Whitney test), P compared to Livostine [2] | Statistical evaluation of clinical scores (Mann-Whitney test), P compared to No treatment group [2] | Clinical signs (conjunctival redness and edema scores), result in words ([2]; n=12, P<0.01, SD<10%, Mann-Whitney test, listed as SEQ ID NO:2) |
| --- | --- | --- | --- | --- | --- |
| KVLDGQDP [Peptide R2, synthetic peptide of the invention] | significantly reduced | 0.796 | 0.515 | 0.000 | statistically significant difference from other groups; also recorded: most effective |
| KVLDPVKG [Peptide R1, synthetic peptide of the invention] | significantly reduced | 0.000 | 0.000 | 0.965 |  |
